Measured values from ChEMBL document CHEMBL4304802, “Novel promising 4-anilinoquinazoline-based derivatives as multi-target RTKs inhibitors: Design, molecular docking, synthesis, and antitumor activities in vitro and vivo” (Bioorg Med Chem, 2019).

Legend:
DU-145 = assay: Antiproliferative activity against human DU145 cells incubated for 72 hrs by MTT assay; assay type: functional, cell-based; conditions: DU-145, 72 h
A549 = assay: Antiproliferative activity against human A549 cells incubated for 72 hrs by MTT assay; assay type: functional, cell-based; conditions: A549, 72 h
MCF7 = assay: Antiproliferative activity against human MCF7 cells incubated for 72 hrs by MTT assay; assay type: functional, cell-based; conditions: MCF7, 72 h
SH-SY5Y = assay: Antiproliferative activity against human SH-SY5Y cells incubated for 72 hrs by MTT assay; assay type: functional, cell-based
HepG2 = assay: Antiproliferative activity against human HepG2 cells incubated for 72 hrs by MTT assay; assay type: functional, cell-based; conditions: HepG2, 72 h
[1] = Cytotoxicity against human CCC-HPF1 cells assessed as decrease in cell viability incubated for 72 hrs by MTT assay; assay type: cell-based; conditions: CCC-HPF-1, 72 h

Compound	IC50 (DU-145)	IC50 (A549)	IC50 (MCF7)	IC50 (SH-SY5Y)	IC50 (HepG2)	IC50 [1]
c1ccc(COc2ccc(Nc3ncnc4cc5c(cc34)OCCOCCOCCO5)cc2)cc1	> 100 µM	> 100 µM	8.34 µM	23.9 µM	> 100 µM	> 100 µM
c1ccc(COc2ccccc2Nc2ncnc3cc4c(cc23)OCCOCCOCCOCCO4)cc1	> 100 µM	48.5 µM	> 100 µM	24 µM	29.2 µM	
FC(F)(F)c1ccc(COc2ccc(Nc3ncnc4cc5c(cc34)OCCOCCOCCO5)cc2)cc1	> 100 µM	30.7 µM	28.5 µM	> 100 µM	> 100 µM	
FC(F)(F)c1ccc(COc2ccccc2Nc2ncnc3cc4c(cc23)OCCOCCO4)cc1	> 100 µM	> 100 µM	> 100 µM	> 100 µM	> 100 µM	
c1ccc(COc2cccc(Nc3ncnc4cc5c(cc34)OCCOCCOCCO5)c2)cc1	> 100 µM	> 100 µM	> 100 µM	22.8 µM	> 100 µM	
O=[N+]([O-])c1ccc(COc2cccc(Nc3ncnc4cc5c(cc34)OCCOCCO5)c2)cc1	> 100 µM	15.5 µM	42.4 µM	36.6 µM	65.3 µM	

The next lines start with results.

IC50 (DU-145)	IC50 (A549)	IC50 (MCF7)	IC50 (SH-SY5Y)	IC50 (HepG2)	Compound	IC50 [1]
> 100 µM	> 100 µM	> 100 µM	19.3 µM	> 100 µM	FC(F)(F)c1ccc(COc2cccc(Nc3ncnc4cc5c(cc34)OCCOCCO5)c2)cc1	
> 100 µM	> 100 µM	> 100 µM	> 100 µM	> 100 µM	O=[N+]([O-])c1ccc(COc2ccc(Nc3ncnc4cc5c(cc34)OCCOCCOCCOCCO5)cc2)cc1	
> 100 µM	> 100 µM	> 100 µM	30.4 µM	> 100 µM	FC(F)(F)c1ccc(COc2ccc(Nc3ncnc4cc5c(cc34)OCCOCCO5)cc2)cc1	
85.6 µM	28.4 µM	> 100 µM	> 100 µM	50.2 µM	O=[N+]([O-])c1ccc(COc2ccccc2Nc2ncnc3cc4c(cc23)OCCOCCO4)cc1	
> 100 µM	43.9 µM	> 100 µM	39.3 µM	55.5 µM	c1ccc(COc2ccc(Nc3ncnc4cc5c(cc34)OCCOCCO5)cc2)cc1	
13.9 µM	6.94 µM	63.3 µM	98.4 µM	37.3 µM	c1ccc(COc2ccccc2Nc2ncnc3cc4c(cc23)OCCOCCOCCO4)cc1	> 100 µM
